Results on three molecules are retold here after BindingDB's records for doi:10.1016/j.bmc.2019.03.049 (Zhuhai Campus of Zunyi Medical University, 2019).

In general, IC50 refers to the concentration needed to halve the response being measured.

The target of this experiment is Hepatocyte growth factor receptor (Homo sapiens) (UniProt P08581). In words: Inhibition of c-MET (unknown origin) using FAM-labelled peptide as substrate measured after 10 mins by mobility shift assay.
Sequence of Hepatocyte growth factor receptor (Homo sapiens) (P08581 whole entry, looked up): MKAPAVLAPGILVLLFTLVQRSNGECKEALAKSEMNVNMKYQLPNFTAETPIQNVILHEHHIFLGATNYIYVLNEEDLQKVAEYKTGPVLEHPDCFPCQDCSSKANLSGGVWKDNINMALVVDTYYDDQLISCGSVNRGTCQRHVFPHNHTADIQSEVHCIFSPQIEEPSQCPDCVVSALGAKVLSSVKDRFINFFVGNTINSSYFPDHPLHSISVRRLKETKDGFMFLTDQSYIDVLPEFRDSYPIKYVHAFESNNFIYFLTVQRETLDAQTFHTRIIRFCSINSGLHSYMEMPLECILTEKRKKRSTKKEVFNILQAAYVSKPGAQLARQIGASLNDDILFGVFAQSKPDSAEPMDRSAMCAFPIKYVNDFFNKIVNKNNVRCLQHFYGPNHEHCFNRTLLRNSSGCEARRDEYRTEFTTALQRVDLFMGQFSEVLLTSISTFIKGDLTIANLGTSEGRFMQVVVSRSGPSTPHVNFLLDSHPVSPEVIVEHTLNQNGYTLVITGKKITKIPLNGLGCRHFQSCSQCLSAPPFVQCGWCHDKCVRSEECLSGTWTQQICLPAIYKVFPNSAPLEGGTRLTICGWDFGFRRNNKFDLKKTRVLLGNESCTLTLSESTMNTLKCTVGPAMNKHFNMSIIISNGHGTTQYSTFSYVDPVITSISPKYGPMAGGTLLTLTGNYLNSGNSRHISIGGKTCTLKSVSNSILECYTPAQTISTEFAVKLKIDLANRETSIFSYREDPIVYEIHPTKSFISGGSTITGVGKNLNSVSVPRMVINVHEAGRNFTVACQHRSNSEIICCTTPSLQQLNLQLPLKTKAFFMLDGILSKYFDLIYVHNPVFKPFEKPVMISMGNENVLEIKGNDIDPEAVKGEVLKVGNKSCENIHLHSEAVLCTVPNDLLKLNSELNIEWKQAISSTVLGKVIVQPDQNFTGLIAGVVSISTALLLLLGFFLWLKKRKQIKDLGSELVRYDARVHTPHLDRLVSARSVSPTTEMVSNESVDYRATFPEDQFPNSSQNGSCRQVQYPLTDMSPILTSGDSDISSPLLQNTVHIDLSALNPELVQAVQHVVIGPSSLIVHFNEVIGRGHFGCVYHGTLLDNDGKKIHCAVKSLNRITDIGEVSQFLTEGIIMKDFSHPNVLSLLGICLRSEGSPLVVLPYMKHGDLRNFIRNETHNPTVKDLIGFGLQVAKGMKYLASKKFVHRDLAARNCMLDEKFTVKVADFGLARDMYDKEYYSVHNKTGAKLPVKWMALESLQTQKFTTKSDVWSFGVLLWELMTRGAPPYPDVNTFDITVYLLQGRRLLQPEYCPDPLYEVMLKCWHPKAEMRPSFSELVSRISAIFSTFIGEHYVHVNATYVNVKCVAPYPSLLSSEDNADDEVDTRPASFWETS

Regarding `COc1cc2c(Oc3ccc(C4SCC(=O)N4NC(=O)Nc4ccc(F)cc4F)cc3)ccnc2cc1OCCCN1CCOCC1` (stereo not drawn), the IC50 was 3.35 µM. Under `COc1cc2c(Oc3ccc(C4SCC(=O)N4NC(=O)Nc4ccccc4)cc3)ccnc2cc1OCCCN1CCOCC1` (stereo not drawn) stands 4.52 µM. Under `COc1cc2c(Oc3ccc(C4SCC(=O)N4NC(=O)Nc4ccc(F)cc4)cc3)ccnc2cc1OCCCN1CCOCC1` (stereo not drawn) stands 4.3 µM.
